We go through 23 molecules from patent publication US12331022B2, “Spiropiperidine allosteric modulators of nicotinic acetylcholine receptors” (Merck Sharp & Dohme LLC, priority 2019, dated 2025).

The target in this test is T1, human α7 nAChR (Homo sapiens, UniProt P36544).
T1 construct: host or cells: HEK
Kind of test: Automated patch-clamp electrophysiology functional assay (Assay A). It counts as cell-based. Conditions: HEK cell line stably expressing human RIC-3 and human α7, IonFlux HT whole-cell population patch, with or without 40 μM acetylcholine. As for the experimental part: The α7 nAChR positive allosteric modulator (PAM) activity of the present compounds may be tested using assays known in the art. The α7 nAChR PAMs described herein have activities in an automated patch-clamp electrophysiology functional assay as described in the examples. The assay was performed using the IonFlux HT in a whole-cell, population patch configuration. See Golden et al. Assay Drug Dev. Technol. (2011) 9:608-619. The compounds were assessed for their ability to modulate the function of the human α7 nAChR stably expressed in a HEK cell line both in the presence, and in the absence of the natural α7 agonist acetylcholine. By performing a series of such measurements at different concentrations, the effective concentration of the α7 nAChR PAMs (EC50) was determined. See Spencer et al. Assay Drug Dev. Technol. (2012) 10:313-324.
Direct activation of α7 (agonism), and potentiation of acetylcholine-evoked α7 currents was determined as follows:
Automated patch-clamp electrophysiology was performed using the IonFlux HT (Fluxion Biosciences Inc., San Francisco, CA) in the whole-cell, population patch configuration. Test compounds were assessed for their ability to modulate the function of the α7 nicotinic acetylcholine receptor both in the presence, and in the absence of the natural α7 agonist acetylcholine. A HEK cell line stably expressing both human RIC-3 and human α7 (PrecisION hnAChR α7/RIC-3, Eurofins Pharma, St. Charles, MO) was cultured in 175 cm^2 triple-layer tissue culture flasks to no more than 90% confluency in DMEM/F-12 growth media supplemented with 10% heat-inactivated fetal bovine serum, 1% non-essential amino acids, 0.625 μg/mL Puromycin, and 400 μg/mL Geneticin. Immediately prior to assay, cells were detached by first aspirating growth media, rinsing with Dulbecco's phosphate buffered saline, and then adding 10 mL of Accutase (Innovative Cell Technologies, San Diego, CA) to the flask and then incubating at 37° C. for 5 minutes. Detached cells were then recovered by the addition of 40 mL of CHO-serum-free media supplemented with 25 mM HEPES, and rocked gently in a 50 mL conical tube for 20 minutes prior to patch-clamp assay. After recovery, cells were pelleted by centrifugation at 1,000 RPM for 1 minute in a compact bench top centrifuge; recovery media was aspirated and cells were resuspended in external recording solution (150 mM NaCl, 5 mM KCl, 2 mM CaCl2, 1 mM MgCl2, 10 mM HEPES, 12 mM dextrose) to a density of 5.0×10^6 cells/mL. The cell suspension was added to the cell inlet wells on an IonFlux HT population patch plate which had previously been rinsed and primed with deionized H2O. Test compounds were serially diluted in DMSO and then resuspended to the final test concentration in external recording solution, with, or without 40 μM acetylcholine added to the external recording solution; test compounds were then transferred to the IonFlux HT population patch plate. Internal recording solution (110 mM TrisPO4, 28 mM TrisBase, 0.1 mM CaCl2, 2 mM MgCl2, 11 mM EGTA, 4 mM MgATP) was added to the internal recording solution inlet wells on the IonFlux HT patch plate previously loaded with cells and test compounds, and the plate loaded into the IonFlux HT instrument. A protocol was executed on the IonFlux HT to trap the cells, break into the cells, and establish the whole-cell recording configuration; cells were voltage-clamped at a holding potential of −60 mV for the duration of the experiment, all experiments were conducted at room temperature, and the IonFlux HT injection pressure was 8 psi for solution applications. Upon establishing the whole-cell configuration, external recording solution was perfused into the recording chambers for 120 seconds and then 40 μM acetylcholine was applied for 1 second and immediately washed off with external recording solution for 60 seconds. […]

pEC50: −log10 of the molar value. Read-outs that look alike come from different tables or passages of the source. Where only a bound is given, the exact number is not on record here.

T1 sequence (P36544 23-502): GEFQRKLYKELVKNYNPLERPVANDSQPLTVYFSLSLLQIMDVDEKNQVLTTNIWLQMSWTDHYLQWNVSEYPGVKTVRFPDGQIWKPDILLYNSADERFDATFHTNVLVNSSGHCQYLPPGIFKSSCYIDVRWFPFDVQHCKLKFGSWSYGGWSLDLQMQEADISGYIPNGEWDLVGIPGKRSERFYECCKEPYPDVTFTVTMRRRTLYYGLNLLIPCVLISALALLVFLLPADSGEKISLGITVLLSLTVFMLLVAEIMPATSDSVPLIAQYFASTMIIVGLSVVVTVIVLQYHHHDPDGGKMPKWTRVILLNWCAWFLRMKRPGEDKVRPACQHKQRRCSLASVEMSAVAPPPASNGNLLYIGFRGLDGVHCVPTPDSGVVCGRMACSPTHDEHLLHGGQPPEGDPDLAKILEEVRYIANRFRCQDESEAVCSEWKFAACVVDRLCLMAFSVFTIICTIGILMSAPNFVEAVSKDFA

As to `NS(=O)(=O)N1CCC2(CC1)C(COc1cccc(OCC(F)(F)F)n1)C2(F)F` (single isomer, unassigned) [Example A41, 1,1-difluoro-2-({[6-(2,2,2-trifluoroethoxy)pyridin-2-yl]oxy}methyl)-6-azaspiro[2.5]octane-6-sulfonamide], the pEC50 (read-out: α7 nAChR Potency) was 6.30 to 7.00. `NS(=O)(=O)N1CCC2(CC1)C[C@H]2COc1cccc(OC(F)(F)F)c1` [Example A24, (1R)-1-{[3-(trifluoromethoxy)phenoxy]methyl}-6-azaspiro[2.5]octane-6-sulfonamide]: the pEC50 runs as follows: (read-out: α7 nAChR EC50) 6.74; (read-out: α7 nAChR Potency) 6.30 to 7.00. The like results for `Cn1nc(C(F)(F)F)cc1OCC1C(F)(F)C12CCN(S(N)(=O)=O)CC2` (single isomer, unassigned) [Example A11, 1,1-difluoro-2-({[1-methyl-3-(trifluoromethyl)-1H-pyrazol-5-yl]oxy}methyl)-6-azaspiro[2.5]octane-6-sulfonamide] were, in that order, 7.05 and no less than 7.00. The like results for `COc1cc(OC[C@H]2CC23CCN(S(N)(=O)=O)CC3)ccc1F` [Example A5, (1S)-1-[(4-fluoro-3-methoxyphenoxy)methyl]-6-azaspiro[2.5]octane-6-sulfonamide] were, in that order, 5.21 and 4.30 to 5.30.

For the molecule `NS(=O)(=O)N1CCC2(CC1)C(/C=C/c1ccc(F)cc1C(F)(F)F)C2(F)F` (stereo not drawn) [Example 19, 1,1-Difluoro-2-{(E)-2-[4-fluoro-2-(trifluoromethyl)phenyl]ethenyl}-6-azaspiro[2.5]octane-6-sulfonamide], the pEC50 (read-out: α7 nAChR EC50) was 5.72 and the pEC50 (read-out: α7 nAChR Potency) is 5.30 to 6.30.

Turning to `NS(=O)(=O)N1CCC2(CC1)C(COc1cccc(OC(F)F)c1)C2(F)F` (single isomer, unassigned) [Example A29, 2-{[3-(difluoromethoxy)phenoxy]methyl}-1,1-difluoro-6-azaspiro[2.5]octane-6-sulfonamide], the pEC50 by setting is: (read-out: α7 nAChR EC50) 6.51; (read-out: α7 nAChR Potency) 6.30 to 7.00. Consider `Cc1cc(C)n(-c2cccc(OC[C@@H]3CC34CCN(S(N)(=O)=O)CC4)n2)n1` [Example A19, (1R)-1-({[6-(3,5-dimethyl-1H-pyrazol-1-yl)pyridin-2-yl]oxy}methyl)-6-azaspiro[2.5]octane-6-sulfonamide], for which the pEC50 (read-out: α7 nAChR EC50) is 6.72 and the pEC50 (read-out: α7 nAChR Potency) was 6.30 to 7.00.

In the case of `COc1ccc(Cl)cc1OCC1C(F)(F)C12CCN(S(N)(=O)=O)CC2` (single isomer, unassigned) [Example A3, 2-[(5-chloro-2-methoxyphenoxy)methyl]-1,1-difluoro-6-azaspiro[2.5]octane-6-sulfonamide], the pEC50 reads like this: (read-out: α7 nAChR EC50) 5.89; (read-out: α7 nAChR Potency) 5.30 to 6.30. As to `NS(=O)(=O)N1CCC2(CC1)CC2COc1cc(F)ccc1C(F)(F)F` (single isomer, unassigned) [Example A15, 1-{[5-fluoro-2-(trifluoromethyl)phenoxy]methyl}-6-azaspiro[2.5]octane-6-sulfonamide], the pEC50 was 6.33 (read-out: α7 nAChR EC50) and 6.30 to 7.00 (read-out: α7 nAChR Potency).

Regarding `COc1ccc(Cl)cc1SC[C@@H]1CC12CCN(S(N)(=O)=O)CC2` [Example 11, (1R)-1-{[(5-Chloro-2-methoxyphenyl)sulfanyl]methyl}-6-azaspiro[2.5]octane-6-sulfonamide], the pEC50 is 7.28 (read-out: α7 nAChR EC50) and no less than 7.00 (read-out: α7 nAChR Potency). As for `CS(=O)(=O)c1cccc(OC[C@@H]2CC23CCN(S(N)(=O)=O)CC3)n1` [Example A45, (1R)-1-({[6-(methylsulfonyl)pyridin-2-yl]oxy}methyl)-6-azaspiro[2.5]octane-6-sulfonamide], the pEC50 (read-out: α7 nAChR Potency) is 4.30 to 5.30.

Consider `CC(C)(C)c1cccc(OC[C@@H]2CC23CCN(S(N)(=O)=O)CC3)n1` [Example A55, (1R)-1-{[(6-tert-butylpyridin-2-yl)oxy]methyl}-6-azaspiro[2.5]octane-6-sulfonamide], for which the pEC50 (read-out: α7 nAChR Potency) was 5.30 to 6.30.

As for `NS(=O)(=O)N1CCC2(CC1)C(COc1cccc(OCC(F)(F)F)c1)C2(F)F` (single isomer, unassigned) [Example A30, 1,1-difluoro-2-{[3-(2,2,2-trifluoroethoxy)phenoxy]methyl}-6-azaspiro[2.5]octane-6-sulfonamide], the pEC50 is, setting by setting: (read-out: α7 nAChR EC50) 7.24; (read-out: α7 nAChR Potency) no less than 7.00.

In the case of `NS(=O)(=O)N1CCC2(CC1)C(COc1ccnc(OCC(F)(F)F)c1)C2(F)F` (single isomer, unassigned) [Example A34, 1,1-difluoro-2-({[2-(2,2,2-trifluoroethoxy)pyridin-4-yl]oxy}methyl)-6-azaspiro[2.5]octane-6-sulfonamide], the pEC50 was 6.26 (read-out: α7 nAChR EC50) and 5.30 to 6.30 (read-out: α7 nAChR Potency). In the case of `NS(=O)(=O)N1CCC2(CC1)C(COc1noc(-c3ccccc3)n1)C2(F)F` (single isomer, unassigned) [Example A21, 1,1-difluoro-2-{[(5-phenyl-1,2,4-oxadiazol-3-yl)oxy]methyl}-6-azaspiro[2.5]octane-6-sulfonamide], the pEC50 reads like this: (read-out: α7 nAChR EC50) 5.96; (read-out: α7 nAChR Potency) 5.30 to 6.30. For `NS(=O)(=O)N1CCC2(CC1)C[C@@H]2COc1noc(-c2ccccc2)n1` [Example A13, (1S)-1-{[(5-phenyl-1,2,4-oxadiazol-3-yl)oxy]methyl}-6-azaspiro[2.5]octane-6-sulfonamide] the same measures were 5.39 and 5.30 to 6.30. The like results for `NS(=O)(=O)N1CCC2(CC1)C[C@@H]2COc1cccc(OCC(F)(F)F)n1` [Example A38, (1S)-1-({[6-(2,2,2-trifluoroethoxy)pyridin-2-yl]oxy}methyl)-6-azaspiro[2.5]octane-6-sulfonamide] were, in that order, 6.14 and 5.30 to 6.30. The like results for `COc1ccc(F)c(OCC2CC23CCN(S(N)(=O)=O)CC3)c1` (racemic) [Example A26, 1-[(2-fluoro-5-methoxyphenoxy)methyl]-6-azaspiro[2.5]octane-6-sulfonamide] were, in that order, 6.19 and 5.30 to 6.30.

As for `NS(=O)(=O)N1CCC2(CC1)C(COc1ccc(F)cc1C(F)(F)F)C2(F)F` (single isomer, unassigned) [Example A10, 1,1-difluoro-2-{[4-fluoro-2-(trifluoromethyl)phenoxy]methyl}-6-azaspiro[2.5]octane-6-sulfonamide], the pEC50 (read-out: α7 nAChR EC50) was 5.82 and the pEC50 (read-out: α7 nAChR Potency) is 5.30 to 6.30.

Consider `NS(=O)(=O)N1CCC2(CC1)C(COc1cccnc1OCC(F)(F)F)C2(F)F` (single isomer, unassigned) [Example A36, 1,1-difluoro-2-({[2-(2,2,2-trifluoroethoxy)pyridin-3-yl]oxy}methyl)-6-azaspiro[2.5]octane-6-sulfonamide], for which the pEC50 (read-out: α7 nAChR EC50) was 5.92 and the pEC50 (read-out: α7 nAChR Potency) was 5.30 to 6.30. For `COc1ccc(Cl)cc1NC[C@@H]1C(F)(F)C12CCN(S(N)(=O)=O)CC2` [Example A59, (2R)-2-{[(5-chloro-2-methoxyphenyl)amino]methyl}-1,1-difluoro-6-azaspiro[2.5]octane-6-sulfonamide] the same measures were 7.66 and no less than 7.00. For `NS(=O)(=O)N1CCC2(CC1)C(COc1cccc(OC(F)F)c1)C2(F)F` (single isomer, unassigned) [Example A28, 2-{[3-(difluoromethoxy)phenoxy]methyl}-1,1-difluoro-6-azaspiro[2.5]octane-6-sulfonamide] the same measures were 7.43 and no less than 7.00. Turning to `NS(=O)(=O)N1CCC2(CC1)C[C@H]2C(=O)Nc1cccc(Cl)c1` [Example B2, (1R)—N-(3-chlorophenyl)-6-sulfamoyl-6-azaspiro[2.5]octane-1-carboxamide], the pEC50 (read-out: α7 nAChR Potency) was 5.30 to 6.30.
